From PMC10947850 (Angewandte Chemie (International ed. in English), 2024)

Test system: Fub7
Assay: steady-state kinetics of aldehyde alkylation
Type: biochemical
Settings: co-substrate O-acetyl-L-homoserine; native nucleophile; PLP enzyme

Q: CCCCCC=O [n-hexanal] was tested. Which Km did it give?
A: 11 mM
